Experimental data published in patent US12054498B2, “Heteroaromatic macrocyclic ether chemotherapeutic agents” (Nuvalent, Inc., priority 2020, dated 2024).

Key:
ROS1-G2032R = target: T1, ROS1-G2032R (Homo sapiens, UniProt P08922, G2032R); assay: Biochemical kinase assay, ROS1-G2032R kinase domain; details: apparent inhibitory constant, Morrison equation; ATP 2 mM in substrate solution; read-out: ROS1-G2032R Ki^app
T1 construct: purchased SignalChem R14-12BG
Outline: (§1)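 Compounds, as 100-fold DMSO stocks, were dispensed first, then substrate mix was added (ATP 2 mM, AQT0101 26 μM, in 50 mM HEPES pH 7.5/10 mM MgCl2). Reactions ran at 30 °C with fluorescence logged every 2 min over 120 min. Apparent inhibition constants came from fitting rates to Morrison's tight-binding equation.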

[1] = target: T2, Ba/F3 cells EML4-ALK L1196M/G1202R (variant 1) (Homo sapiens, UniProt Q9UM73, G1202R/L1196M); assay: Ba/F3 cell proliferation assay, EML4-ALK L1196M/G1202R (variant 1); format: cell-based; details: 72 hours, CellTiter-Glo
T2 construct: echinoderm microtubule-associated protein-like 4 (EML4) gene and the ALK tyrosine kinase domain; host or cells: Ba/F3 (RIKEN), retroviral pMSCV-puro; the other entry of the earlier key: EML4 (Q9HC35, Echinoderm microtubule-associated protein-like 4)
Outline: (§2)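 Luminescence from CellTiter-Glo after 72 hours of compound exposure measured viability of IL-3-independent Ba/F3 cells carrying the retrovirally introduced fusion. Cells were plated at 1,000 per well one day before 3-fold serial dilutions were added. IC50 values came from four-parameter logistic regression.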

TRKA-wt = target: T3, TRKA-wt (Homo sapiens, UniProt P04629); assay: Biochemical kinase assay, TRKA-wt kinase domain; details: apparent inhibitory constant, Morrison equation; ATP 2 mM in substrate solution; read-out: TRKA-wt Ki^app
T3 construct: or TRKA-wt (1 nM, BPS Bio, 40280) kinase domains in buffer; purchased BPS Bio 40280
Outline: (§3)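 Kinase domains (in kinase solution: ROS1-G2032R 0.5 nM, ROS1-wt 0.6 nM, TRKA 1 nM, ALK L1196M/G1202R 3 nM) were mixed with compound and a substrate solution of 2 mM ATP plus 26 μM fluorogenic AQT0101 (ALK, ROS1) or AQT0104 (TRKA) in HEPES pH 7.5/MgCl2. Fluorescence was followed for 120 min at 30° C; Ki^app was obtained by Morrison fit of initial rates.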

[2] = target: T4, Ba/F3 cells CD74-ROS1 G2032R (Homo sapiens, UniProt P08922, G2032R); assay: Ba/F3 cell proliferation assay, CD74-ROS1 G2032R; format: cell-based; details: 72 hours, CellTiter-Glo
T4 construct: fusion of the C-terminus of ROS1 with the N-terminus of various partner proteins; host or cells: Ba/F3 (RIKEN), retroviral pMSCV-puro; the other entry of the earlier key: CD74 (P04233, HLA class II histocompatibility antigen gamma chain)
Outline: (§4)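 Cells were seeded 1 day, then exposed to a 3-fold compound dilution series for 72 hours. Viability was read by CellTiter-Glo luminescence; IC50 came from four-parameter logistic fitting of percent inhibition.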

[3] = target: T5, Ba/F3 cells EML4-ALK wt (variant 1) (Homo sapiens, UniProt Q9UM73); assay: Ba/F3 cell proliferation assay, EML4-ALK wt (variant 1); format: cell-based; details: 72 hours, CellTiter-Glo
T5 construct: echinoderm microtubule-associated protein-like 4 (EML4) gene and the ALK tyrosine kinase domain; host or cells: Ba/F3 (RIKEN), retroviral pMSCV-puro; the other entry of the earlier key: EML4 (Q9HC35, Echinoderm microtubule-associated protein-like 4)
Outline: as §2

[4] = test system: TPM3-NTRK1-wt IC50 / primary target IC50 (e.g. CD74-ROS1-wt); assay: TRKA selectivity in Ba/F3 cells (TRKA potency divided by primary target potency); format: cell-based; details: for TPM3-NTRK1-wt/CD74-ROS1-G2032R selectivity ratio: TRKA potency / CD74-ROS1-G2032R potency; for TPM3-NTRK1-wt/CD74-ROS1-wt selectivity ratio: TRKA potency / CD74-ROS1-wt potency; for TPM3-NTRK1-wt/EML4-ALK-L1196M-G1202R selectivity ratio: TRKA potency / EML4-ALK-L1196M-G1202R potency; for TPM3-NTRK1-wt/EML4-ALK-wt selectivity ratio: TRKA potency / EML4-ALK-wt potency
Protocol: TRKA selectivity was calculated by dividing a compound's TRKA potency by its primary target potency (e.g. TPM3-NTRK1-wt IC50/CD74-ROS1-wt IC50). Compound selectivity can be interpreted by binning ratio values: bin A for very high selectivity, ratio >30-fold; bin B for high selectivity, ratio >10-fold; bin C for moderate selectivity, ratio ≥1; and bin D for low selectivity, ratio <1. […] (nd=not determined).

ALK L1196M/G1202R = target: T6, ALK L1196M/G1202R (Homo sapiens, UniProt Q9UM73, G1202R/L1196M); assay: Biochemical kinase assay, ALK L1196M/G1202R kinase domain; details: apparent inhibitory constant, Morrison equation; ATP 2 mM in substrate solution; read-out: ALK-L1196M-G1202R Ki^app
T6 construct: purchased SignalChem A19-12NG
Outline: as §3

Ba/F3 cells TPM3-TRKA = target: T7, Ba/F3 cells TPM3-TRKA (Homo sapiens, UniProt P04629); assay: Ba/F3 cell proliferation assay, TPM3-TRKA; format: cell-based; details: 72 hours, CellTiter-Glo, read-out: TPM3-NTRK1-wt IC50
T7 construct: host or cells: Ba/F3 (RIKEN), retroviral pMSCV-puro; the other entry of the earlier key: TPM3 (P06753, Tropomyosin alpha-3 chain)
Outline: as §2

ROS1-wt = target: T8, ROS1-wt (Homo sapiens, UniProt P08922); assay: Biochemical kinase assay, ROS1-wt kinase domain; details: apparent inhibitory constant, Morrison equation; ATP 2 mM in substrate solution; read-out: ROS1-wt Ki^app
T8 construct: purchased Carna 08-163
Outline: as §1

ALK-wt = target: T9, ALK-wt (Homo sapiens, UniProt Q9UM73); assay: Biochemical kinase assay, ALK-wt kinase domain; details: apparent inhibitory constant, Morrison equation; ATP 2 mM in substrate solution; read-out: ALK-wt Ki^app
T9 construct: purchased Carna 08-518
Outline: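 Apparent Ki values come from fitting initial reaction rates against inhibitor concentration to the Morrison equation. Rates were taken from the linear phase of fluorogenic substrate phosphorylation (AQT0101 for ALK and ROS1, AQT0104 for TRKA; 26 μM in substrate solution with 2 mM ATP), monitored at 485 nm over 120 min at 30° C.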

[5] = target: T10, Ba/F3 cells CD74-ROS1 wild-type (wt) (Homo sapiens, UniProt P08922); assay: Ba/F3 cell proliferation assay, CD74-ROS1 wild-type; format: cell-based; details: 72 hours, CellTiter-Glo
T10 construct: fusion of the C-terminus of ROS1 with the N-terminus of various partner proteins; host or cells: Ba/F3 (RIKEN), retroviral pMSCV-puro; the other entry of the earlier key: CD74 (P04233, HLA class II histocompatibility antigen gamma chain)
Outline: as §4

T5 sequence (Q9UM73 with tags, fused parts or gaps): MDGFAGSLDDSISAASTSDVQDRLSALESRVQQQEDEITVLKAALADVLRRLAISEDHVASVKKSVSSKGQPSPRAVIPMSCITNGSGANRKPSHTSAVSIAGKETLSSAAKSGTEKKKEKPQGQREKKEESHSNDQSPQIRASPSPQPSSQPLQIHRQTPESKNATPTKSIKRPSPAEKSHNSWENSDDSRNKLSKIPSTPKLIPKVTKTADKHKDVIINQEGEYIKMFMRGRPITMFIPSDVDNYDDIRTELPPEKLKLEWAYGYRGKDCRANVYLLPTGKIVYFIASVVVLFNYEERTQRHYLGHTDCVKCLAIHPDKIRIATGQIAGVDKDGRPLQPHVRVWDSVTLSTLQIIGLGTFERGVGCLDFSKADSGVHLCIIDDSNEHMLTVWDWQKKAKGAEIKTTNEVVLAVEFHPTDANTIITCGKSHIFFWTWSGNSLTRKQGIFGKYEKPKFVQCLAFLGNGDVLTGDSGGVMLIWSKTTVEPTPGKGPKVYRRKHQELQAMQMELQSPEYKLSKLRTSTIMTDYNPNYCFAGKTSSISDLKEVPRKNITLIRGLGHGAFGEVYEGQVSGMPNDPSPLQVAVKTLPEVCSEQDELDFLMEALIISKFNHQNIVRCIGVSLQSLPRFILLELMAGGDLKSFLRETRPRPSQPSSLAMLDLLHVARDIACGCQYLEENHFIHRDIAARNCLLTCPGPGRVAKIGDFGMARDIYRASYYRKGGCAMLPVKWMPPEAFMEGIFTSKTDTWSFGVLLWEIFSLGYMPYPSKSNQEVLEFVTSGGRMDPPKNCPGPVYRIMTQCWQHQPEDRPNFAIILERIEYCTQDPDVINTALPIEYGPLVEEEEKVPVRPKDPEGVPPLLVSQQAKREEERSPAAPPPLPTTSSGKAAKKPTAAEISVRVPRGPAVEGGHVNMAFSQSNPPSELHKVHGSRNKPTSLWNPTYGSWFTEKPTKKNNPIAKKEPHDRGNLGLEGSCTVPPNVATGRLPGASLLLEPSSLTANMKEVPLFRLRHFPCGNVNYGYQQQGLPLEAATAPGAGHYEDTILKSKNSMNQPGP
T9 sequence (Q9UM73 1116-1392 limits assumed): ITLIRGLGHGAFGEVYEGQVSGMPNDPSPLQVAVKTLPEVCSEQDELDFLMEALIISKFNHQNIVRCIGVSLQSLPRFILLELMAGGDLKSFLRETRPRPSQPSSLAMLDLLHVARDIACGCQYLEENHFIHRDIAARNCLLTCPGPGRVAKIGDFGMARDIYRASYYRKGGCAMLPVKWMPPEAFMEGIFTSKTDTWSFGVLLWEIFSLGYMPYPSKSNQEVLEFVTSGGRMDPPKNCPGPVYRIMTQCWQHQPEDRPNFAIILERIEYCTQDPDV
T10 sequence (P08922 1883-2347 limits assumed): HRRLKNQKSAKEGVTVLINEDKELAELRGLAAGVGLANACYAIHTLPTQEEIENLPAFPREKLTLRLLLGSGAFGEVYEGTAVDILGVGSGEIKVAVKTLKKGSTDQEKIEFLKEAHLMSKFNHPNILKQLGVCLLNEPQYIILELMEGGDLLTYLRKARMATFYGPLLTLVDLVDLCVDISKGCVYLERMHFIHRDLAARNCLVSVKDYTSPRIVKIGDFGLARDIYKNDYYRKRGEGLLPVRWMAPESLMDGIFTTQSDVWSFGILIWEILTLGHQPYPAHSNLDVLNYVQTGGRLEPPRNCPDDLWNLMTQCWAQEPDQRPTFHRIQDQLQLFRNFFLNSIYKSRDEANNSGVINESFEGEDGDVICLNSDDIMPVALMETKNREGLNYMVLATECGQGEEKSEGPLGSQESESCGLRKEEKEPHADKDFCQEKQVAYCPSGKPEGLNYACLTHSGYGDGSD
T1 sequence (P08922 1945-2222 G2032R limits assumed): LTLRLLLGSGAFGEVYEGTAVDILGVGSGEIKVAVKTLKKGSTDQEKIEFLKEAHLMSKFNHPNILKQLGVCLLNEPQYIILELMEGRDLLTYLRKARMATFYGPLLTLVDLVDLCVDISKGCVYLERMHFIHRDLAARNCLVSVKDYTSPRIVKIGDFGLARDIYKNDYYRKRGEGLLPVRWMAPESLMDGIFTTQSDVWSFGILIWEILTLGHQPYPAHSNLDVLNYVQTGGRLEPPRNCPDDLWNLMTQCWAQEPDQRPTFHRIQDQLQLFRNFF
T3 sequence (P04629 510-781 limits assumed): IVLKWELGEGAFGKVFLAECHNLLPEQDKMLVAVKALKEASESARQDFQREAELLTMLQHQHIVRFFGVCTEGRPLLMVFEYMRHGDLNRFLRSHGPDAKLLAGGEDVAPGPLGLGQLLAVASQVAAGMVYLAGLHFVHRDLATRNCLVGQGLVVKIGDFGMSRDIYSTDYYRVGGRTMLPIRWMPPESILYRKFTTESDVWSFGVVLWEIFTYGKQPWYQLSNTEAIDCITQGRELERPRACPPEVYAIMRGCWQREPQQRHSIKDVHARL
T4 sequence (P08922 1883-2347 G2032R limits assumed): as the sequence (P08922 1883-2347 limits assumed) above, with G150R counted along it
T8 sequence (P08922 1945-2222 limits assumed): as the sequence (P08922 1945-2222 G2032R limits assumed) above, with R88G counted along it
T6 sequence (Q9UM73 1116-1392 L1196M/G1202R limits assumed): as the sequence (Q9UM73 1116-1392 limits assumed) above, with L81M, G87R counted along it
T2 sequence (Q9UM73 with tags, fused parts or gaps L1196M/G1202R): as the sequence (Q9UM73 with tags, fused parts or gaps) above, with L635M, G641R counted along it
T7 sequence (P04629 510-796 limits assumed): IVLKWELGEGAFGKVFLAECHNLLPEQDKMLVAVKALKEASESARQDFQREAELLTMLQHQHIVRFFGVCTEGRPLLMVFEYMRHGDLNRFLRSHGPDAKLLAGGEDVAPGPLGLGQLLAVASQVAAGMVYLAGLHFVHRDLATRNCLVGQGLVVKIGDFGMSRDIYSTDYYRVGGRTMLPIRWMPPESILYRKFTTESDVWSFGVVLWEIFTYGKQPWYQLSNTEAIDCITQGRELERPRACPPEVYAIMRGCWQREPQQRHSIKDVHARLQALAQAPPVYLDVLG

CCn1nnc2c1-c1cnc(N)c(c1)O[C@H](C)c1cc(F)ccc1-c1scnc1C2 [Example 53, (19R)-3-ethyl-16-fluoro-19-methyl-20-oxa-11-thia-3,4,5,9,23-pentaazapentacyclo[19.3.1.0^2,^6.0^8,^12.0^13,^18]pentacosa-1(24),2(6).4,8(12),9,13,15,17,21(25),22-decaen-22-amine]
Ki (ROS1-G2032R): < 50 nM
IC50 [1]: 50 to 500 nM
Ki (TRKA-wt): > 500 nM
IC50 [2]: 0.1 to 50 nM
IC50 [3]: 0.1 to 50 nM
TPM3-NTRK1-wt/CD74-ROS1-G2032R selectivity ratio [4]: A (bin A for very high selectivity, ratio >30-fold)
TPM3-NTRK1-wt/CD74-ROS1-wt selectivity ratio [4]: A (bin A for very high selectivity, ratio >30-fold)
TPM3-NTRK1-wt/EML4-ALK-L1196M-G1202R selectivity ratio [4]: C (bin C for moderate selectivity, ratio ≥1)
TPM3-NTRK1-wt/EML4-ALK-wt selectivity ratio [4]: B (bin B for high selectivity, ratio >10-fold)
Ki (ALK L1196M/G1202R): < 50 nM
IC50 (Ba/F3 cells TPM3-TRKA): > 500 nM
Ki (ROS1-wt): < 50 nM
Ki (ALK-wt): < 50 nM
IC50 [5]: 0.1 to 50 nM

C[C@H]1Oc2cc(cnc2N)-c2c(C#N)noc2Cc2nn(C)nc2-c2ccc(F)cc21 [Example 25, (19R)-22-amino-16-fluoro-10,19-dimethyl-5,20-dioxa-4,9,10,11,23-pentaazapentacyclo[19.3,1.0^2,^6.0^8,^12.0^13,^18]pentacosa-1(24),2(6),3,8,11,13,15,17,21(25),22-decaene-3-carbonitrile]
Ki (ROS1-G2032R): 50 to 500 nM
IC50 [1]: > 500 nM
Ki (TRKA-wt): > 500 nM
IC50 [2]: 0.1 to 50 nM
IC50 [3]: 50 to 500 nM
TPM3-NTRK1-wt/CD74-ROS1-G2032R selectivity ratio [4]: A (bin A for very high selectivity, ratio >30-fold)
TPM3-NTRK1-wt/CD74-ROS1-wt selectivity ratio [4]: A (bin A for very high selectivity, ratio >30-fold)
TPM3-NTRK1-wt/EML4-ALK-L1196M-G1202R selectivity ratio [4]: C (bin C for moderate selectivity, ratio ≥1)
TPM3-NTRK1-wt/EML4-ALK-wt selectivity ratio [4]: A (bin A for very high selectivity, ratio >30-fold)
Ki (ALK L1196M/G1202R): 50 to 500 nM
IC50 (Ba/F3 cells TPM3-TRKA): > 500 nM
Ki (ROS1-wt): < 50 nM
Ki (ALK-wt): < 50 nM
IC50 [5]: 0.1 to 50 nM

CCn1ncc2c1-c1cnc(N)c(c1)OC(C)c1cc(F)cnc1-c1ccnn1C2 (stereo not drawn) [Example 37, 3-ethyl-16-fluoro-19-methyl-20-oxa-3,4,8,9,14,23-hexaazapentacyclo[19.3.1.0^2,^6.0^8,^12.0^13,^18]pentacosa-1(24),2(6),4,9,11,13,15,17,21(25),22-decaen-22-amine]
Ki (ROS1-G2032R): < 50 nM
IC50 [1]: 50 to 500 nM
Ki (TRKA-wt): > 500 nM
IC50 [2]: 0.1 to 50 nM
IC50 [3]: 0.1 to 50 nM
TPM3-NTRK1-wt/CD74-ROS1-G2032R selectivity ratio [4]: A (bin A for very high selectivity, ratio >30-fold)
TPM3-NTRK1-wt/CD74-ROS1-wt selectivity ratio [4]: A (bin A for very high selectivity, ratio >30-fold)
TPM3-NTRK1-wt/EML4-ALK-L1196M-G1202R selectivity ratio [4]: B (bin B for high selectivity, ratio >10-fold)
TPM3-NTRK1-wt/EML4-ALK-wt selectivity ratio [4]: A (bin A for very high selectivity, ratio >30-fold)
Ki (ALK L1196M/G1202R): 50 to 500 nM
IC50 (Ba/F3 cells TPM3-TRKA): > 500 nM
Ki (ROS1-wt): < 50 nM
Ki (ALK-wt): < 50 nM
IC50 [5]: 0.1 to 50 nM
